Holding throughout (type): in vivo
The subject of data set [1] is Puccinia recondita var. tritici. The data set is described as follows: Wheat leaf rust control on sprayed wheat seedlings (Example 79). As to conditions: 100 ppm spray, day before inoculation; for pest or weed control at 100 ppm: Puccinia recondita, 168 h. The method in brief: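 Wheat seedlings were sprayed to run-off with 100 ppm compound suspended in water with 6% acetone and 250 ppm TREM 014 surfactant. Next day they were inoculated with Puccinia recondita var. tritici spores and held 24 h at saturated humidity, 20°. Rust pustules were rated after a further 7 days in a growth room.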

In the next data set the test system is Cercospora arachidicola. Description: Peanut early leafspot control on sprayed peanut seedlings (Example 84). As to conditions: 100 ppm spray, day before inoculation; for pest or weed control at 100 ppm: Mycosphaerella arachidis, 360 h, read-out: % Control Peanut Easly Leafspot.
The test system of a further data set is Venturia inaequalis. The data set is described as follows: Apple scab control on sprayed apple seedlings (Example 82). As to conditions: 100 ppm spray, day before inoculation; for pest or weed control at 100 ppm: Venturia inaequalis.
In the next data set the test system is cucumber seedlings. The data set is described as follows: Phytotoxicity on cucumber seedlings (Example 80). As to conditions: 100 ppm spray. Also on record: key: G = growth reduction; H = hormonal effects. As to the method:
The compounds of the previous example were again dissolved in acetone in an amount equal to 6% of the final volume and then suspended at a concentration of 100 ppm in purified water containing 250 ppm of the surfactant TREM 014 (polyhydric alcohol esters). These suspensions were sprayed to the point of run-off, on cucumber seedlings. The following day, the plants were inoculated with a spore suspension of the fungus Erysiphe cichoracearum, causal agent of cucumber powdery mildew, and incubated in a growth room for 7 days. Disease ratings were then made. Treated plants from successful treatments had little or no powdery mildew in contrast to untreated plants which were covered with powdery mildew. Phytotoxicity in the form of growth reduction or hormonal effects was observed on some of the plants in association with disease control.

In another data set the test system is Phytophthora infestans. The data set is described as follows: whole plant or invertebrate. The note with it: for pest or weed control at 100 ppm: Phytophthora infestans, in Solanum lycopersicum, 168 h, read-out: % Control of Tomato Late Blight, 100 ppm spray, day before inoculation; for % Control of Tomato Late Blight: 100 ppm spray, day before inoculation.
Another data set has as its system Rhizoctonia solani. The data set is described as follows: Rice sheath blight control on sprayed rice seedlings (Example 87). As to conditions: 100 ppm spray, day before inoculation; for pest or weed control at 100 ppm: Rhizoctonia solani, 168 h. The method in brief: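 Rice seedlings were sprayed to run-off with 100 ppm compound suspended in water with 6% acetone and 250 ppm TREM 014 surfactant. They were inoculated next day with bran plus R. solani mycelium. Sheath blight was rated after 7 days in a growth room.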

In another data set the test system is Erysiphe cichoracearum. The data set is described as follows: Cucumber powdery mildew control on sprayed cucumber seedlings (Example 80). The note with it: 100 ppm spray, day before inoculation; for pest or weed control at 100 ppm: Golovinomyces cichoracearum, 168 h.
The subject of a further data set is Helminthosporium maydis. Description: Southern corn leaf blight control on sprayed corn seedlings (Example 83). As to conditions: 100 ppm spray, day before inoculation; for pest or weed control at 100 ppm: Bipolaris maydis, 192 h. The method in brief:
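Compounds in 6% acetone at 100 ppm in water with 250 ppm TREM 014 surfactant, sprayed to run-off on corn seedlings; next day inoculated with spore suspension. 24 h at saturated humidity and 20°, then 7 days in growth room before disease rating; phytotoxicity scored as growth reduction.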

For the next data set, the system named is Pyricularia oryzae. Description: whole plant or invertebrate. As to conditions: for pest or weed control at 100 ppm: Pyricularia oryzae, 168 h, read-out: % Control of Rice Blast, 100 ppm spray, day before inoculation; for % Control of Rice Blast: 100 ppm spray, day before inoculation.

The source of these data is patent publication US4510136A (priority 1983, dated 1985).

`COc1cccc([Si](C)(C)Cn2cncn2)c1OC` [(2,3-Dimethoxyphenyl)dimethyl(1H-1,2,4-triazol-1-ylmethyl)silane]: the pest or weed control at 100 ppm in data set [1] worked out at 0%; in the data set with Cercospora arachidicola, 0%; in the data set with Venturia inaequalis, 0%; in the data set on Phytophthora infestans, 0%; in the data set on Rhizoctonia solani, 0%; in the data set on Erysiphe cichoracearum, 100%. The pest or weed control at 100 ppm in the data set with Helminthosporium maydis and in the data set with Pyricularia oryzae was 0% in each case. Further, the Phytotoxicity on cucumber entry in the data set with cucumber seedlings is given as “G”.

Turning to `COc1cccc(OC)c1[Si](C)(C)Cn1cncn1` [(2,6-Dimethoxyphenyl)dimethyl(1H-1,2,4-triazol-1-ylmethyl)silane], the pest or weed control at 100 ppm in data set [1] came to 0%; with Cercospora arachidicola, 0%; in the data set on Venturia inaequalis, 0%; in the data set on Phytophthora infestans, 0%; with Rhizoctonia solani, 0%; in the data set on Erysiphe cichoracearum it was 100%. For the same compound, the pest or weed control at 100 ppm in the data set on Helminthosporium maydis and in the data set on Pyricularia oryzae was 0% in each case. Besides, the Phytotoxicity on cucumber entry in the data set with cucumber seedlings is recorded as “G”.

With `C[Si](C)(Cn1cncn1)c1ccccc1Cl` [(2-Chlorophenyl)dimethyl(1H-1,2,4-triazol-1-ylmethyl)silane], the pest or weed control at 100 ppm was found to be 0% in data set [1], 0% with Phytophthora infestans, 0% in the data set on Rhizoctonia solani and 100% in the data set with Pyricularia oryzae. For the same compound, the Phytotoxicity on cucumber entry with cucumber seedlings was “G”.

In the case of `COc1ccccc1[Si](C)(C)Cn1cncn1` [(2-Methoxyphenyl)dimethyl(1H-1,2,4-triazol-1-ylmethyl)silane], the pest or weed control at 100 ppm in [1] is 0%; in the data set with Cercospora arachidicola it was 0%; in the data set on Venturia inaequalis, 80%; in the data set on Phytophthora infestans it was 0%; in the data set with Rhizoctonia solani, 0%; with Erysiphe cichoracearum it was 100%. Also, the pest or weed control at 100 ppm in the data set with Helminthosporium maydis came out at 70%; in the data set on Pyricularia oryzae, 0%. Besides, the Phytotoxicity on cucumber entry in the data set on cucumber seedlings was “G”.

In the case of `C[Si](C)(Cn1cncn1)C1CCCCC1` [Cyclohexyl(dimethyl)(1H-1,2,4-triazol-1-ylmethyl)silane], the pest or weed control at 100 ppm in [1] amounted to 0%; in the data set with Cercospora arachidicola, 0%; in the data set with Venturia inaequalis, 0%; in the data set with Phytophthora infestans it was 0%; in the data set on Rhizoctonia solani, 0%; with Erysiphe cichoracearum, 100%. For the same compound, the pest or weed control at 100 ppm with Helminthosporium maydis is 50%. For the same compound, in the data set on cucumber seedlings, the Phytotoxicity on cucumber result was “G”.

With `C[Si](C)(Cn1cncn1)c1ccc(C(F)(F)F)cc1` [Dimethyl(1H-1,2,4-triazol-1-ylmethyl)(4-trifluoromethylphenyl)silane], the pest or weed control at 100 ppm in [1] was 0%; in the data set on Cercospora arachidicola, 0%; with Venturia inaequalis, 0%; with Phytophthora infestans it was 0%; with Rhizoctonia solani, 0%; in the data set on Erysiphe cichoracearum, 100%. Moreover, the pest or weed control at 100 ppm with Helminthosporium maydis worked out at 50%; in the data set with Pyricularia oryzae, 0%. Further, the Phytotoxicity on cucumber result with cucumber seedlings is “G”.

As for `C[Si](C)(Cn1cncn1)c1ccc(OC(F)(F)F)cc1` [Dimethyl(4-trifluoromethoxyphenyl)(1H-1,2,4-triazol-1-ylmethyl)silane], the pest or weed control at 100 ppm is 100% in data set [1]; 50% in the data set on Cercospora arachidicola; 90% in the data set on Venturia inaequalis; 0% with Phytophthora infestans; 0% in the data set with Rhizoctonia solani; 100% in the data set with Erysiphe cichoracearum. Further, the values for the pest or weed control at 100 ppm in the data set on Helminthosporium maydis and in the data set on Pyricularia oryzae were 80% and 0%, respectively. Besides, the Phytotoxicity on cucumber result in the data set with cucumber seedlings is recorded as “G”.

On to `C[Si](Cn1cncn1)(c1ccc(Br)cc1)c1ccc(Br)cc1` [[bis(4-Bromophenyl)]methyl(1H-1,2,4-triazol-1-ylmethyl)silane], for which the pest or weed control at 100 ppm in data set [1] came out at 0%; with Cercospora arachidicola it was 100%; in the data set with Venturia inaequalis, 80%; in the data set with Phytophthora infestans, 0%; in the data set with Rhizoctonia solani, 0%; in the data set on Erysiphe cichoracearum it was 80%. Also, the pest or weed control at 100 ppm with Helminthosporium maydis came to 0%; with Pyricularia oryzae it was 90%. The Phytotoxicity on cucumber result with cucumber seedlings is listed as “G”.

On to `O[Si](Cn1cnnc1)(c1ccc(Cl)cc1)c1ccc(Cl)cc1` [bis(4-Chlorophenyl)hydroxy(4H-1,2,4-triazol-4-ylmethyl)silane], for which the pest or weed control at 100 ppm was 90% in data set [1]; 100% in the data set with Cercospora arachidicola; 100% with Venturia inaequalis; 0% with Phytophthora infestans; 0% with Rhizoctonia solani; 100% in the data set on Erysiphe cichoracearum. For the same compound, the pest or weed control at 100 ppm with Helminthosporium maydis was 80%; in the data set on Pyricularia oryzae it was 0%.

As to `Clc1ccc([Si](Cn2cncn2)(c2ccc(Cl)cc2)c2ccc(Cl)cc2)cc1` [tris(4-Chlorophenyl)(1H-1,2,4-triazol-1-ylmethyl)silane], the pest or weed control at 100 ppm in data set [1] came out at 40%; in the data set on Cercospora arachidicola, 0%; in the data set with Venturia inaequalis, 0%; with Phytophthora infestans, 0%; with Rhizoctonia solani, 0%; in the data set on Erysiphe cichoracearum, 100%. The pest or weed control at 100 ppm in the data set on Helminthosporium maydis and in the data set on Pyricularia oryzae was 0% throughout.

Consider `Fc1ccc([Si](Cn2cncn2)(c2ccc(F)cc2)c2ccc(F)cc2)cc1` [tris(4-Fluorophenyl)(1H-1,2,4-triazol-1-ylmethyl)silane], for which the pest or weed control at 100 ppm in [1] was 90%; in the data set with Cercospora arachidicola it was 90%; with Venturia inaequalis, 60%; in the data set with Phytophthora infestans it was 0%; in the data set with Rhizoctonia solani, 0%; with Erysiphe cichoracearum it was 0%. For the same compound, the pest or weed control at 100 ppm in the data set on Helminthosporium maydis and with Pyricularia oryzae was 0% each time.

As for “(1,1'-Biphenyl-4-yl)dimethyl(1H-1,2,4-triazol-1-ylmethyl)silane, 1:1 complex with zinc (II) chloride”, the “% Control Wheat Rust” value in data set [1] was found to be 100%. The “% Control Peanut Easly Leafspot” value in the data set on Cercospora arachidicola was found to be 100%. Further, the “% Control Apple Scab” value in the data set on Venturia inaequalis is 100%. Also, the “% Control of Tomato Late Blight” value in the data set with Phytophthora infestans is 90%. Further, the “% Control of Rice Sheath Blight” value in the data set with Rhizoctonia solani worked out at 90%. Moreover, in the data set on Erysiphe cichoracearum, the “% Control Cucumber Powdery Mildew” value was 80%. The “% Control of Southern Corn Leaf Blight” value in the data set on Helminthosporium maydis is given as 90%. Further, the “% Control of Rice Blast” value in the data set with Pyricularia oryzae stood at 100%.

“(1,1'-Biphenyl-4-yl)dimethyl(1H-1,2,4-triazol-1-ylmethyl)silane, 2:1 complex with cupric chloride”: the “% Control Wheat Rust” value in data set [1] was determined as 100%. In the data set on Cercospora arachidicola, the “% Control Peanut Easly Leafspot” value amounted to 100%. The “% Control Apple Scab” value in the data set on Venturia inaequalis is 100%. The “% Control of Tomato Late Blight” value with Phytophthora infestans came out at 0%. Also, the “% Control of Rice Sheath Blight” value in the data set on Rhizoctonia solani came to 80%. For the same compound, in the data set on Erysiphe cichoracearum, the “% Control Cucumber Powdery Mildew” value is reported as 100%. In the data set with Helminthosporium maydis, the “% Control of Southern Corn Leaf Blight” value turned out to be 80%. Also, the “% Control of Rice Blast” value with Pyricularia oryzae came out at 0%.
